According to BindingDB's records for doi:10.1016/s0960-894x(99)00093-1 (Sankyo, 1999):

biological target: T1, Substance-K receptor (Cavia porcellus, UniProt Q64077); experiment: ChEBML_142706
T1 sequence (Q64077 whole entry): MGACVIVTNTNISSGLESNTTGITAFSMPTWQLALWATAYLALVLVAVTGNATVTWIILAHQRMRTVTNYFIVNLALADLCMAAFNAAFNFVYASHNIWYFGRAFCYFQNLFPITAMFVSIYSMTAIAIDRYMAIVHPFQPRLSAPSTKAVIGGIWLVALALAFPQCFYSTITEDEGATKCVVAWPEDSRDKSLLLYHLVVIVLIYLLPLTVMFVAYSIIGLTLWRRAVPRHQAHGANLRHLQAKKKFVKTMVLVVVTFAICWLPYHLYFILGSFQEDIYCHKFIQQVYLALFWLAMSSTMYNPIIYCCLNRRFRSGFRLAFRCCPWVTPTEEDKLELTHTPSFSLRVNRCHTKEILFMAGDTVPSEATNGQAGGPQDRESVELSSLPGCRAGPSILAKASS
Description: (§1) Inhibitory activity against Neurokinin 2 (NK2) receptor from guinea pig ileum

Compound | IC50
COc1cc(C(=O)N2CO[C@](CCN3CCC4(CC3)C(=O)N(C)c3ccccc34)(c3ccc(Cl)c(Cl)c3)C2)cc(OC)c1OC | 34 nM
COc1cc(C(=O)N2CO[C@](CCN3CCC4(CC3)c3ccccc3C[S+]4[O-])(c3ccc(Cl)c(Cl)c3)C2)cc(OC)c1OC (some centres undefined) | 7.5 nM
COc1cc(C(=O)N2CO[C@](CCN3CCC(C(N)=O)(c4ccccc4)CC3)(c3ccc(Cl)c(Cl)c3)C2)cc(OC)c1OC | 91 nM

biological target: T2, Substance-P receptor (Cavia porcellus, UniProt P30547); experiment: ChEBML_144914
T2 sequence (P30547 whole entry): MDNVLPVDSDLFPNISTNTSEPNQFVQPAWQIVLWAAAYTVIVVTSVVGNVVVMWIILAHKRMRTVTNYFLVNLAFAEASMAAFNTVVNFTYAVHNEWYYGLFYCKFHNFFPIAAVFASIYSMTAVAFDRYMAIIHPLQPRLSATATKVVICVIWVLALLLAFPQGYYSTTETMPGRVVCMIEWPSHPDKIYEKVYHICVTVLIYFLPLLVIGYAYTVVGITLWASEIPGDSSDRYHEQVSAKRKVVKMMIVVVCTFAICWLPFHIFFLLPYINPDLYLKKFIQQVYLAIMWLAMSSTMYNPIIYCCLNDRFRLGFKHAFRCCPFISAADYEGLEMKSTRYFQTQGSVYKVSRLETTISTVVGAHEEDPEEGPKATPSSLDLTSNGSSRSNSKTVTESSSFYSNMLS
Description: (§2) Inhibitory activity against Neurokinin 1 (NK1) receptor from guinea pig lung

Compound | IC50
COc1cc(C(=O)N2CO[C@](CCN3CCC4(CC3)NC(=O)Cc3ccccc34)(c3ccc(F)c(F)c3)C2)cc(OC)c1OC | 28 nM
COc1cc(C(=O)N2CO[C@](CCN3CCC4(CC3)c3ccccc3C[S+]4[O-])(c3ccc(F)c(F)c3)C2)cc(OC)c1OC (some centres undefined) | 16 nM
COc1cc(C(=O)N2CO[C@](CCN3CCC(C(=O)N(C)C)(c4ccccc4)CC3)(c3ccc(F)c(F)c3)C2)cc(OC)c1OC | 27 nM

biological target: T1, Substance-K receptor; experiment: as §1

Compound | IC50
COc1cc(C(=O)N2CO[C@](CCN3CCC(C(=O)N4CCOCC4)(c4ccccc4)CC3)(c3ccc(Cl)c(Cl)c3)C2)cc(OC)c1OC | 52 nM
COc1cc(C(=O)N2CO[C@](CCN3CCN(c4ccc(C(C)=O)cc4)CC3)(c3ccc(Cl)c(Cl)c3)C2)cc(OC)c1OC | 74 nM
COc1cc(C(=O)N2CO[C@](CCN3CCC(C(=O)N(C)C)(c4ccccc4)CC3)(c3ccc(Cl)cc3)C2)cc(OC)c1OC | 4.7 nM
COc1cc(C(=O)N2CO[C@](CCN3CCC4(CC3)C[S+]([O-])c3ccccc34)(c3ccc(Cl)c(Cl)c3)C2)cc(OC)c1OC (some centres undefined) | 7.3 nM

biological target: T2, Substance-P receptor; experiment: as §2

Compound | IC50
COc1cc(C(=O)N2CO[C@](CCN3CCC(C(N)=O)(c4ccccc4)CC3)(c3ccc(F)c(F)c3)C2)cc(OC)c1OC | 10 nM
COc1cc(C(=O)N2CO[C@](CCN3CCN(c4ccc(C(C)=O)cc4)CC3)(c3ccc(Cl)c(Cl)c3)C2)cc(OC)c1OC | 18 nM
COc1cc(C(=O)N2CO[C@](CCN3CCC(C(N)=O)(c4ccccc4)CC3)(c3ccc(Cl)cc3)C2)cc(OC)c1OC | 27 nM
COc1cc(C(=O)N2CO[C@](CCN3CCC(C(N)=O)(c4ccccc4)CC3)(c3ccc(F)cc3)C2)cc(OC)c1OC | 27 nM
